In ChEMBL document CHEMBL1126089, “2-Alkynyl derivatives of adenosine and adenosine-5'-N-ethyluronamide as selective agonists at A2 adenosine receptors” (J Med Chem, 1992):

Tests used:
Adenosine receptor A1 [1] = biological target: T1, Adenosine receptor A1 (Rattus norvegicus, UniProt P25099); experiment: Binding affinity against high affinity component of Adenosine A1 receptor from rat brain membranes using [3H]-DPCPX; format: cell membranes, Membrane
T1 sequence (P25099 whole entry): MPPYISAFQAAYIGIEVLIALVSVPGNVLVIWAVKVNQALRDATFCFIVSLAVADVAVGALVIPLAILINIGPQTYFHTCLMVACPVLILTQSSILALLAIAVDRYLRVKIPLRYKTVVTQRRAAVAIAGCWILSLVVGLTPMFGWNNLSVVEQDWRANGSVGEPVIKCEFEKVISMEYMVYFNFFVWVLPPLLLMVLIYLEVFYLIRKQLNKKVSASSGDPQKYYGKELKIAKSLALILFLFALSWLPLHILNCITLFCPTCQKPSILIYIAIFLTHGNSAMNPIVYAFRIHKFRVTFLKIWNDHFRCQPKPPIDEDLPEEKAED

Adenosine receptor A1 [2] = biological target: T1, Adenosine receptor A1; experiment: Binding affinity against low affinity component of Adenosine A1 receptor from rat brain membranes using [3H]DPCPX; format: cell membranes, Membrane
Adenosine A2 receptor [3] = biological target: T2, Adenosine A2 receptor (Homo sapiens, UniProt P29275+P29274); experiment: Binding affinity against A2 adenosine receptors from human platelet membranes using [3H]NECA
Adenosine A2 receptor [4] = biological target: T2, Adenosine A2 receptor; experiment: Agonistic activity at Adenosine A2 receptor; format: functional
[5] = Selectivity as ratio of IC50 for A1 adenosine receptor compared to EC50 for A2 adenosine receptor
Adenosine A2 receptor [6] = biological target: T2, Adenosine A2 receptor; experiment: Maximal NECA stimulation of adenylate cyclase via A2 receptors in human platelet membranes; format: cell membranes
Adenosine A2 receptor [7] = biological target: T3, Adenosine A2 receptor (Rattus norvegicus, UniProt P29276+P30543); experiment: Binding affinity against Adenosine A2 receptor from rat striatal membrane with 50 nM CPA using [3H]NECA
Adenosine receptor A1 [8] = biological target: T1, Adenosine receptor A1; experiment: Binding affinity against Adenosine A1 receptor from rat brain membranes using [3H]CCPA
Adenosine A2 receptor [9] = biological target: T2, Adenosine A2 receptor; experiment: Maximal NECA stimulation of adenylate cyclase via Adenosine A2 receptor in human platelet membranes; format: cell membranes
Adenosine receptor A1 [10] = biological target: T1, Adenosine receptor A1; experiment: Inhibition of adenylate cyclase via adenosine A1 receptors in rat fat cell membranes; format: functional, Membrane
Adenosine A2 receptor [11] = biological target: T3, Adenosine A2 receptor
Adenosine receptor A1 [12] = biological target: T1, Adenosine receptor A1
Description: Binding affinity against high affinity component of adenosine A1 receptors from rat brain membranes using [3H]DPCPX

Adenosine A2 receptor [13] = biological target: T2, Adenosine A2 receptor
Adenosine receptor A1 [14] = biological target: T1, Adenosine receptor A1; remark: listed apart in the source
Description: Binding affinity against low affinity component of adenosine A1 receptors from rat brain membranes using [3H]-DPCPX

Adenosine A2 receptor [15] = biological target: T2, Adenosine A2 receptor; experiment: Agonistic activity at adenosine A2 receptor; format: functional
Adenosine A2 receptor [16] = biological target: T2, Adenosine A2 receptor; experiment: Maximal NECA stimulation of adenylate cyclase via adenosine A2 receptor in human platelet membranes; format: cell membranes
Adenosine receptor A1 [17] = biological target: T1, Adenosine receptor A1; remark: listed apart in the source
Description: Binding affinity against adenosine A1 receptors from rat brain membranes using [3H]CCPA

Adenosine A2 receptor [18] = biological target: T3, Adenosine A2 receptor; experiment: Binding affinity against A2 adenosine receptors from rat striatal membranes with 50 nM CPA using [3H]NECA
Adenosine receptor A1 [19] = biological target: T1, Adenosine receptor A1; experiment: Inhibition of adenylate cyclase via Adenosine A1 receptor in rat fat cell membranes; format: functional, Membrane
Adenosine A2 receptor [20] = biological target: T2, Adenosine A2 receptor; experiment: Maximal NECA stimulation of adenylate cyclase via Adenosine A2 receptor in human platelet membranes.; format: cell membranes
[21] = biological target: Adenosine A2a receptor (Rattus norvegicus) (UniProt P30543); experiment: Binding affinity against Adenosine A2 receptor from rat striatal membranes with 50 nM CPA using [3H]-NECA
Adenosine A2 receptor [22] = biological target: T2, Adenosine A2 receptor; experiment: Binding affinity against Adenosine A2 receptor from human platelet membranes using [3H]NECA
[23] = biological target: Adenosine A2 receptor (Rattus norvegicus) (UniProt P29276+P30543); experiment: Binding affinity against Adenosine A2 receptor from rat striatal membranes with 50 nM CPA using [3H]NECA
Adenosine receptor A1 [24] = biological target: T1, Adenosine receptor A1; experiment: Inhibition of adenylate cyclase via A1 receptors in rat fat cell membranes; format: functional, Membrane
Adenosine receptor A1 [25] = biological target: T1, Adenosine receptor A1; experiment: Binding affinity against A1 adenosine receptors from rat brain membranes using [3H]CCPA

Adenosine A2a receptor (Rattus norvegicus), sequence (P30543 whole entry, looked up): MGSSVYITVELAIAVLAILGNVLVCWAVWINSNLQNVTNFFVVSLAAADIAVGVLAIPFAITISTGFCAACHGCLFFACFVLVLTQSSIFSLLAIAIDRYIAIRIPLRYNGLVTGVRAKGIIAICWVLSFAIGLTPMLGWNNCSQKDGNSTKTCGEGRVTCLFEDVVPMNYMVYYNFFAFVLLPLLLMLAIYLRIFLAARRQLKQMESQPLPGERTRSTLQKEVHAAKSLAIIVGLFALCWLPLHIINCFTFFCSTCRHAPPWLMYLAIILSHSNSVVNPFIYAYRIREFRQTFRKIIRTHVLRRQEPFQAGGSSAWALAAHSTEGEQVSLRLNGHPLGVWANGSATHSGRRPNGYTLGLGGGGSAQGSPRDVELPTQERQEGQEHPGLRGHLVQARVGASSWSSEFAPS

Structure (SMILES) | Ki (Adenosine receptor A1 [1]) | Emax (Adenosine A2 receptor [4]) | A2 selectivity [5] | IC50 (Adenosine receptor A1 [10]) | Ki (Adenosine A2 receptor [11]) | Ki (Adenosine receptor A1 [12]) | Ki (Adenosine A2 receptor [13]) | Ki (Adenosine receptor A1 [14]) | Emax (Adenosine A2 receptor [15]) | EC50 (Adenosine A2 receptor [16]) | Ki (Adenosine receptor A1 [17]) | also measured
CCCCCC#Cc1nc(N)c2ncn(C3O[C@H](C(=O)NCC)[C@@H](O)[C@H]3O)c2n1 (some centres undefined) | 171 nM | 100% | 34 | – | – | – | – | – | – | – | – | Ki (Adenosine A2 receptor [18]): 4.7 nM; IC50 (Adenosine receptor A1 [19]): 13.1 µM; Ki (Adenosine receptor A1 [2]): 2910 nM; EC50 (Adenosine A2 receptor [6]): 388 nM; Ki (Adenosine receptor A1 [8]): 89 nM; EC50 (Adenosine A2 receptor [9]): 0.0371 µM
CCCCC#Cc1nc(N)c2ncn([C@@H]3O[C@H](C(=O)NCC)[C@@H](O)[C@H]3O)c2n1 | – | – | 42 | 4.38 µM | 3.8 nM | 136 nM | 5.7 nM | 3160 nM | 100% | 105 nM | 43.9 nM | –
CCCCC#Cc1nc(N)c2ncn([C@@H]3O[C@H](CO)[C@@H](O)[C@H]3O)c2n1 | – | – | – | 2.3 µM | – | 12.5 nM | – | 633 nM | 65% | – | 15.9 nM | –
CCCCCCC#Cc1nc(N)c2ncn([C@@H]3O[C@H](CO)[C@@H](O)[C@H]3O)c2n1 | – | – | 4 | 2.91 µM | 6.3 nM | 19.6 nM | 39.9 nM | 823 nM | 65% | 681 nM | 25.2 nM | –

More lines, main results first:

Ki (Adenosine receptor A1 [1]) | Emax (Adenosine A2 receptor [4]) | A2 selectivity [5] | IC50 (Adenosine receptor A1 [10]) | Ki (Adenosine A2 receptor [11]) | Ki (Adenosine receptor A1 [12]) | Ki (Adenosine A2 receptor [13]) | Ki (Adenosine receptor A1 [14]) | Emax (Adenosine A2 receptor [15]) | EC50 (Adenosine A2 receptor [16]) | Ki (Adenosine receptor A1 [17]) | Structure (SMILES) | also measured
67 nM | 100% | 23 | – | – | – | – | – | – | – | – | CCCCCCC#Cc1nc(N)c2ncn(C3O[C@H](C(=O)NCC)[C@@H](O)[C@H]3O)c2n1 (some centres undefined) | Ki (Adenosine receptor A1 [2]): 2940 nM; Ki (Adenosine A2 receptor [3]): 159 nM; EC50 (Adenosine A2 receptor [6]): 585 nM; Ki (Adenosine A2 receptor [7]): 14.8 nM; Ki (Adenosine receptor A1 [8]): 64.4 nM; EC50 (Adenosine A2 receptor [9]): 13.5 µM
– | – | 24 | 3 µM | 16.4 nM | 16 nM | 7.3 nM | 849 nM | 65% | 127 nM | 21.5 nM | CCCC#Cc1nc(N)c2ncn([C@@H]3O[C@H](CO)[C@@H](O)[C@H]3O)c2n1 | –
– | – | 8 | 3.38 µM | 2.8 nM | 32.2 nM | 20.8 nM | 1220 nM | 65% | 414 nM | 28.4 nM | CCCCCC#Cc1nc(N)c2ncn([C@@H]3O[C@H](CO)[C@@H](O)[C@H]3O)c2n1 | –
33 nM | 100% | 44 | – | – | – | – | – | – | – | – | CCCC#Cc1nc(N)c2ncn([C@@H]3O[C@H](C(=O)NCC)[C@@H](O)[C@H]3O)c2n1 | EC50 (Adenosine A2 receptor [20]): 19.5 nM; IC50 (Adenosine receptor A1 [19]): 1.62 µM; EC50 [21]: 62 nM; Ki (Adenosine A2 receptor [22]): 12.6 nM; A2 selectivity [23]: 2; IC50 (Adenosine receptor A1 [24]): 2700 nM; Ki (Adenosine receptor A1 [25]): 40.8 nM
